The record followed here is patent US7119111B2, “2-oxo-1,3,4-trihydroquinazolinyl derivatives and methods of use” (Amgen, Inc., priority 2002, dated 2006).

Molecules are shown by their SMILES. Where a name gives a salt, the structure may show the parent alone. Bounds are passed on as bounds.

The compound `O=C1Nc2cccc(CN3CCOCC3)c2CN1c1csc(-c2ccncc2)n1` (as salt: HCl) [Example 14, 5-(Morpholin-4-ylmethyl)-3-(2-(4-pyridyl)(1,3-thiazol-4-yl))-1,3,4-trihydroquinazolin-2-one] registered a melting point of 261 to 263 °C.
The same measure for `O=C1Nc2cccc(CN3CCCCC3)c2CN1c1csc(-c2ccncc2)n1` (as salt: HCl) [Example 15, 5-(Piperidylmethyl)-3-(2-(4-pyridyl)(1,3-thiazol-4-yl))-1,3,4-trihydroquinazolin-2-one]: 278 to 280 °C; for `O=C1Nc2cccc(OCCN3CCOCC3)c2CN1c1nc(-c2ccncc2)ns1` (as salt: salt) [Example 51, 5-(2-Morpholin-4-ylethoxy)-3-(3-(4-pyridyl)(1,2,4-thiadiazol-5-yl))-1,3,4-trihydroquinazolin-2-one]: 259 to 260 °C; for `O=C1Nc2cccc(Br)c2CN1c1csc(-c2ccncc2)n1` [Example 6, 5-Bromo-3-(2-(4-pyridyl)(1,3-thiazol-4-yl))-1,3,4-trihydroquinazolin-2-one]: 283 to 284 °C.
Consider `Cc1ccc2c(c1)CN(c1csc(-c3ccncc3)n1)C(=O)N2` [Example 7, 6-Methyl-3-(2-(4-pyridyl)(1,3-thiazol-4-yl))-1,3,4-trihydroquinazolin-2-one], for which the melting point is 259 to 261 °C.
The same measure for `O=C1Nc2cc(F)ccc2CN1c1csc(-c2ccncc2)n1` [Example 9, 7-Fluoro-3-(2-(4-pyridyl)(1,3-thiazol-4-yl))-1,3,4-trihydroquinazolin-2-one]: 285 to 286 °C; for `O=C1Nc2ccc(F)cc2CN1c1csc(-c2ccncc2)n1` [Example 10, 6-Fluoro-3-(2-(4-pyridyl)(1,3-thiazol-4-yl))-1,3,4-trihydroquinazolin-2-one]: 290 to 291 °C.
`O=C1Nc2cccc(Cl)c2CN1c1csc(-c2ccncc2)n1` [Example 11, 5-Chloro-3-(2-(4-pyridyl)(1,3-thiazol-4-yl))-1,3,4-trihydroquinazolin-2-one] registered a melting point of 292 to 293 °C.
`O=C1Nc2cc(-c3ccccc3)ccc2CN1c1csc(-c2ccncc2)n1` [Example 12, 7-Phenyl-3-(2-(4-pyridyl)(1,3-thiazol-4-yl))-1,3,4-trihydroquinazolin-2-one] came in with a melting point of 248 to 250 °C.
For the compound `O=C1Nc2cccc(F)c2CN1c1csc(-c2ccncc2)n1` [Example 13, 5-Fluoro-3-(2-(4-pyridyl)(1,3-thiazol-4-yl))-1,3,4-trihydroquinazolin-2-one], the melting point lay within 247 to 249 °C.
The same measure for `O=C1Nc2ccccc2CN1c1nc(-c2ccncc2)cs1` [Example 16, 3-(4-(4-Pyridyl)-1,3-thiazol-2-yl)-1,3,4-trihydroquinazolin-2-one]: over 267 °C.
`O=C1Nc2ccccc2CN1c1nc(-c2ccccn2)cs1` [Example 17, 3-(4-(2-Pyridyl)-1,3-thiazol-2-yl)-1,3,4-trihydroquinazolin-2-one] displayed a melting point of over 275 °C.
Then `O=C1Nc2ccccc2CN1c1nc(-c2cccnc2)cs1` [Example 18, 3-(4-(3-Pyridyl)-1,3-thiazol-2-yl)-1,3,4-trihydroquinazolin-2-one], with 269 to 272 °C; and `O=C1Nc2cc(CN3CCOCC3)ccc2CN1c1csc(-c2ccncc2)n1` [Example 27, 7-(Morpholin-4-ylmethyl)-3-(2-(4-pyridyl)(1,3-thiazol-4-yl))-1,3,4-trihydroquinazolin-2-one], with 249 to 250 °C.
On to `O=C1Nc2cccc(CN3CCCCCC3)c2CN1c1csc(-c2ccncc2)n1` [Example 29, 5-(Azaperhydroepinylmethyl)-3-(2-(4-pyridyl)(1,3-thiazol-4-yl))-1,3,4-trihydroquinazolin-2-one], for which the melting point lay in the range of 202 to 204 °C.
`COc1cccc(-c2ccc3c(c2)NC(=O)N(c2csc(-c4ccncc4)n2)C3)c1` [Example 30, 7-(3-Methoxyphenyl)-3-(2-(4-pyridyl)(1,3-thiazol-4-yl))-1,3,4-trihydroquinazolin-2-one]: the melting point is 256 to 258 °C.
With `CCc1cc(-c2nc(N3Cc4ccccc4NC3=O)cs2)ccn1` [Example 35, 3-[2-(2-Ethyl-4-pyridyl)-1,3-thiazol-4-yl]-1,3,4-trihydroquinazolin-2-one], the melting point fell in the range of 239 to 240 °C.
Consider `O=C1Nc2ccc(N3CCCCC3)cc2CN1c1nc(-c2ccncc2)cs1` [Example 36, 6-Piperidyl-3-(4-(4-pyridyl)(1,3-thiazol-2-yl))-1,3,4-trihydroquinazolin-2-one], for which the melting point was over 272 °C.
The same measure for `CN(C)CCN(C)c1ccc2c(c1)CN(c1nc(-c3ccncc3)cs1)C(=O)N2` [Example 37, 6-{[2-(Dimethylamino)ethyl](methyl)amino}-3-(4-(4-pyridyl)(1,3-thiazol-2-yl))-1,3,4-trihydroquinazolin-2-one]: 254 to 257 °C; for `CN1CCN(c2ccc3c(c2)CN(c2nc(-c4ccncc4)cs2)C(=O)N3)CC1` [Example 38, 6-(4-Methylpiperazinyl)-3-(4-(4-pyridyl)(1,3-thiazol-2-yl))-1,3,4-trihydroquinazolin-2-one]: 301 to 304 °C.
The same measure for `O=C1Nc2ccccc2CN1c1nc(-c2ccc(F)c(F)c2)cs1` [Example 39, 3-[4-(3,4-Difluorophenyl)-1,3-thiazol-2-yl]-1,3,4-trihydroquinazolin-2-one]: 289 to 293 °C; for `Cc1ccc(Oc2ccc3c(c2)CN(c2nc(-c4ccncc4)cs2)C(=O)N3)c(C)c1` [Example 40, 6-(2,4-Dimethylphenoxy)-3-(4-(4-pyridyl)(1,3-thiazol-2-yl))-1,3,4-trihydroquinazolin-2-one]: 254 to 258 °C.
Regarding `COc1ccc(-c2csc(N3Cc4ccccc4NC3=O)n2)c(OC)c1` [Example 41, 3-[4-(2,4-Dimethoxyphenyl)-1,3-thiazol-2-yl]-1,3,4-trihydroquinazolin-2-one], the melting point is 283 to 288 °C.
In the case of `O=C1Nc2cccc(Cl)c2CN1c1nc(-c2ccncc2)cs1` [Example 43, 5-Chloro-3-(4-(4-pyridyl)(1,3-thiazol-2-yl))-1,3,4-trihydroquinazolin-2-one], the melting point was over 300 °C.
Then `O=C1Nc2ccccc2CN1c1nc(-c2ccc(Cl)c(Cl)c2)cs1` [Example 44, 3-[4-(3,4-Dichlorophenyl)-1,3-thiazol-2-yl]-1,3,4-trihydroquinazolin-2-one], with 295 to 299 °C; and `O=C1Nc2cccc(F)c2CN1c1nc(-c2ccncc2)cs1` [Example 45, 5-Fluoro-3-(4-(4-pyridyl)(1,3-thiazol-2-yl))-1,3,4-trihydroquinazolin-2-one], with over 300 °C.
`O=C1Nc2ccccc2CN1c1nc(-c2ccncc2)ns1` [Example 46, 3-(3-(4-Pyridyl)-1,2,4-thiadiazol-5-yl)-1,3,4-trihydroquinazolin-2-one]: the melting point is over 290 °C.
Then `O=C1Nc2ccccc2CN1c1ccc(-c2ccncc2)s1` [Example 47, 3-(5-(4-Pyridyl)-2-thienyl)-1,3,4-trihydroquinazolin-2-one], with 301 to 305 °C.
